Assay results: publication PMC10493664, “The neurotrophic activities of brain‐derived neurotrophic factor are potentiated by binding with apigenin, a common flavone in vegetables, in stimulating the receptor signaling” (CNS Neuroscience & Therapeutics, 2023)

Target: T1, BDNF (Homo sapiens, UniProt P23560)
T1 construct: purchased human BDNF (Alomone Labs); noncovalent dimer; PDB 1B8M used only as docking model
T1 sequence (P23560 129-247): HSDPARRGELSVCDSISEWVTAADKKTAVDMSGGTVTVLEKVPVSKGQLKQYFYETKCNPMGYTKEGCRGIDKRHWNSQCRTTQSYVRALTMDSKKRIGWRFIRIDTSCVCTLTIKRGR
Assay: surface plasmon resonance (Biacore T100, BDNF on CM5 chip, steady-state affinity fit)
Assay type: binding

Kd: ~14.2 µM
SMILES: O=c1cc(-c2ccc(O)cc2)oc2cc(O)cc(O)c12 [apigenin]
